Measured values: patent US11597728B2, “Monoacylglycerol lipase modulators” (Janssen Pharmaceutica NV, priority 2018, dated 2023)

Target: human MGL from HeLa cells (Homo sapiens (Human), UniProt Q99685)
Experiment: In vitro MGL activity assay: cleavage of [glycerol-1,3-3H]-oleoyl glycerol, activated carbon filtration
Assay type: biochemical

Chain of human MGL from HeLa cells (Q99685 whole entry): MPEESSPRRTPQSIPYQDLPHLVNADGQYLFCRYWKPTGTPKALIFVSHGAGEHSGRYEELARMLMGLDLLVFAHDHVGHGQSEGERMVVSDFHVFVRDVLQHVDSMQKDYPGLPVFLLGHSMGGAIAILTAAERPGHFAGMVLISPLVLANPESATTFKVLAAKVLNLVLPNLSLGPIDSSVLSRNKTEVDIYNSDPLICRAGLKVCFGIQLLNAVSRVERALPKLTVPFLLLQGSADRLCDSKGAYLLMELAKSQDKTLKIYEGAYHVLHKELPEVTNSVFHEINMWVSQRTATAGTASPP

## Cn1nc2c(c1-c1ccc(F)c(F)c1)C[C@H]1CCC[C@@H]2N1C(=O)c1ccccc1-n1nccn1 [Example 126, (2-(2H-1,2,3-Triazol-2-yl)phenyl)((5R,9S)-3-(3,4-difluorophenyl)-2-methyl-4,5,6,7,8,9-hexahydro-2H-5,9-epiminocycloocta[c]pyrazol-10-yl)methanone]
  IC50: 7.44 nM
